From publication PMC4509728, “Crystal Structures Reveal that the Reaction Mechanism of Imidazoleglycerol-Phosphate Dehydratase Is Controlled by Switching Mn(II) Coordination” (Structure(London, England:1993), 2015)

Target: T1, IGPD2 (construct B) (Arabidopsis thaliana, UniProt O23346, E73Q)
T1 construct: gene HISN5B; construct B, residues 69-272, signal peptide removed and further N-terminal truncation; pET24a, E. coli BL21(DE3); homo 24mer, site formed by three chains
T1 sequence (O23346 69-272 E73Q): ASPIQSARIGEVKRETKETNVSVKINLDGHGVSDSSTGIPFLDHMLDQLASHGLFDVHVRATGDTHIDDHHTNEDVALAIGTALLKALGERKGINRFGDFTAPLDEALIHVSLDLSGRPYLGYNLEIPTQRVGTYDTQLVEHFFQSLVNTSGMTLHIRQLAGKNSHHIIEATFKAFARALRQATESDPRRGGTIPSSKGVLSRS
Assay: X-ray crystallography of the co-crystal ([…] Å form A)
Type: binding
Details: inactive mutant, Mn(II), mixed occupancy with 2R3S IGP at the same site

O=P(O)(O)OC[C@H](O)[C@@H](O)c1cnc[nH]1 [2S3S diastereoisomer of IGP]
X-ray crystallography of the co-crystal (1.12 Å form A): Both diastereoisomers bind at the same site
